Reference: US9427455B2, “Use of the pat nanopeptide in the treatment of autoimmune diseases” (CLL PHARMA, priority 2008, dated 2016)

Tests used:
Format in all cases: in vivo
[1] = tested on: arthritic rats of OFA (SD) strain; assay: Arthritis induced by Freund's adjuvant (Mycobacterium butyricum) in the rat; details: for volume of the leg: 5 times per week during 3 weeks, from Day 14 until Day 21, FIG. 4; for hypersensitivity measured by the plantar test: Day 16, equivalent to non-arthritic reference group, FIG. 6; for erythrocyte sedimentation rate (ESR): FIG. 7; for macroscopic clinical score: FIG. 5
Method: We used the model of arthritis induced by Freund' adjuvant as described in the article of Milan et al., J Neurosci 1986; 6: 899-906. The rats are administered with Mycobacterium butyricum develop usually a severe polyarthritis which resembles to that in human. Rats of OFA (SD) strain (Oncins France Strain A) weighing approximately 200 g received an […] of a 10 mg/ml Mycobacterium butyricum solution at the articulation of the right ankle. For all the measured parameters, the rats were divided into 5 groups (8 rats/group) in the following way: • reference group: the rats received a paraffin injection instead of the solution of Mycobacterium butyricum (no induced arthritis) then receive an intraperitoneal injection of saline solution; • arthritic group+injection of saline solution; • arthritic group+intraperitoneal injection of 3 mg/kg indomethacin; the indomethacin being a NSAID classically used as reference in this kind of test; • arthritic group+intraperitoneal injection of 0.4 […]; […] The products are administered 5 times per week during 3 weeks. At the beginning of the experimentation (day 0), one determines the initial values for the different parameters (volume of the leg, macroscopic clinical score, sedimentation test and hypersensitivity). During the experiment, several parameters are measured: • the volume of the leg (“paw latency duration”); • the globular sedimentation test (“Erythrocyte Sedimentation rate”); • the macroscopic score: • “0” means that no sign of arthritis was detected; • “1” means that a swelling or an inflammation was detected on a leg; • “2” means that a swelling or an inflammation was detected on two legs; • “3” means that a swelling or an inflammation was detected on at lest 3 legs; • “4” means that a swelling or an inflammation was detected on the 4 legs. • hypersensitivity according to the plantar test: carried out according to Yukinori Nagakura and al, Allodynia and hyperalgesia in adjuvant-induced arthritic rats: time course of progression and efficacy of analgesics, JPET 306: 490-497, 2003, or in Andersen M L and al “Evaluation of acute and chronic treatments with Harpagophytum procumbens one Freund's adjuvant-induced arthritis in rats”. J. Ethnopharmacol. 2004 April; 91 (2-3): 325-30; • the erythrocyte sedimentation rate (ESR): the increase in this one generally accompanies the clinical symptoms met in induced arthritis. The ESR is measured in the arthritic rats (at Day 21) 1 hour and 2 hours after the injection of PAT or indomethacin, according to the protocol of Mahajan S G, et al., Protective Effect of Ethanolic Extract of Seeds of Moringa will oleifera Lam. Against Inflammation Associated with Development of Arthritis in Rats. J. Immunotoxicol. 2007 January; 4 (1): 39-47.

[2] = tested on: IL-1β; assay: Expression of IL-1β in colon by quantitative RT-PCR, TNBS colitis mice; details: 25 μg of PAT; TNBS alone increases almost 50 fold; FIG. 3
Method: (§1) Colitis is induced in C57BL/6J mice of 7-8 weeks old after TNBS administration per rectal route according to the protocol described by Sugimoto K. et al (Gastroenterology 2002: 123; 1912-1922). The administration is performed directly in the lumen of the colon (over a 3-4 cm length) by using a 1 ml-syringe and a polyethylene cannula (Intradermic PE-20, Becton Dickinson) of a 100 μl solution containing 2.5 mg of TNBS dissolved beforehand in 50 μl of ethanol. After the administration, the mice are maintained 30 seconds in vertical position. […]
(§2) The latter is carried out by denaturation with guanidine thiocyanate; cDNA synthesis is made starting from 1 ng of RNA using a kit (Euromedex). A quantitative PCR is carried out; the reaction is performed in a 25 μl final volume by using SYBR kit (Eurogentec). Stimulation rate is determined for each cytokine compared to reference cDNA which is that corresponding to […] ribosomal phosphoprotein.

[3] = tested on: IL-6; assay: Expression of IL-6 in colon by quantitative RT-PCR, TNBS colitis mice; details: 25 μg of PAT per mouse; TNBS alone increases around 30 fold; FIG. 3
Method: as §1, §2

[4] = tested on: TNF-α; assay: Expression of TNF-α in colon by quantitative RT-PCR, TNBS colitis mice; details: PAT 25 μg/mouse; TNBS alone increases around 4 fold; FIG. 3
Method: as §1, §2

[5] = tested on: C57BL/6J mice with colitis induced by TNBS; assay: TNBS-induced experimental colitis in mice (animal weight, colon inflammation); details: for effect on animal weight (weight loss induced by TNBS): FIG. 1
Method: The PAT nonapeptide was studied in animal model of experimental colitis. In mice, one of the clearly established IBD colitis models is the one in which the induction is performed by the use of trinitrobenzene sulphonic acid (TNBS). TNBS is a hapten which, when it is administered by intrarectal route, induced a severe colonic transmural inflammation; the induced effects present many similarities with those induced by Crohn's disease (Elson C O et al Experimental models of inflammatory bowel disease. Gastroenterology 2003; 10: 1344-67; Strober W et al., The immunology of mucosal models of inflammation. Annu Rev Immunol 2002; 20: 495-49).
Colitis is induced in C57BL/6J mice of 7-8 weeks old after TNBS administration per rectal route according to the protocol described by Sugimoto K. et al (Gastroenterology 2002: 123; 1912-1922). The administration is performed directly in the lumen of the colon (over a 3-4 cm length) by using a 1 ml-syringe and a polyethylene cannula (Intradermic PE-20, Becton Dickinson) of a 100 μl solution containing 2.5 mg of TNBS dissolved beforehand in 50 μl of ethanol. After the administration, the mice are maintained 30 seconds in vertical position.
The design of the study is the following: • one control batch of 5 mice treated by ethanol/PBS mixture (vol/vol): • one test batch of 10 mice to which TNBS is administered (2.5 mg in 50% ethanol); • one test batch of 10 mice to which TNBS and nonapeptide are administered with the amount of 1 μg/mouse; • one test batch of 10 mice to which TNBS and nonapeptide are administered with the amount of 5, μg/mouse; • one batch of 10 mice to which TNBS and nonapeptide are administered with the amount of 25 μg/mouse.
The PAT nonapeptide is administered by intraperitoneal route 30 minutes before the TNBS induction of colitis. Several mice (5 of each test batch; 2 of control batch) are sacrificed at day 1 after TNBS induction. The remaining mice (5 of each test batch; 3 of control batch) are sacrificed at day 3 after TNBS induction.
The animals are weighed every day until the sacrifice.
As soon as the animals are sacrificed, the colon is sampled and a macroscopic analysis is carried out.

[6] = tested on: IL-10; assay: Expression of IL-10 in colon by quantitative RT-PCR, TNBS colitis mice; details: PAT 25 μg/mouse before TNBS; not increased with TNBS alone; FIG. 3
Method: as §1, §2

**Q.** How did the “volume of the leg” value ([1]; indomethacin 3 mg/kg i.p.) turn out when COc1ccc2c(c1)c(CC(=O)O)c(C)n2C(=O)c1ccc(Cl)cc1 [indomethacin, reference compound] was run?
**A.** Its value is “notable reduction of inflammation and of the volume of the leg”.

**Q.** What about the “hypersensitivity measured by the plantar test” value ([1]; indomethacin 3 mg/kg i.p.) of the same compound?
**A.** Its value is “hypersensitivity is very reduced”.

**Q.** And the “erythrocyte sedimentation rate (ESR)” value ([1]; indomethacin 3 mg/kg i.p., Day 21)?
**A.** Its value is “reduced in a very important way”.

**Q.** What about the macroscopic clinical score ([1]; indomethacin 3 mg/kg i.p., compared to arthritic rats given saline solution) of the same compound?
**A.** The macroscopic clinical score was “significant reduction in the macroscopic score”.

**Q.** What does the source list for “H EAKSQGGSD-NH2 (H-EAKSQGGSD-NH2) [PAT nonapeptide]”?
**A.** IL-1β cytokine expression [2]: decreases to a significant extent; IL-6 expression [3]: decreases to a significant extent; TNF-α expression [4]: the increase is notably reduced; effect on animal weight (weight loss induced by TNBS) ([5]; PAT 1 μg/mouse i.p. 30 minutes before TNBS): do not show a significant effect; effect on animal weight (weight loss induced by TNBS) ([5]; PAT 5 μg/mouse i.p. 30 minutes before TNBS): do not show a significant effect; effect on animal weight (weight loss induced by TNBS) ([5]; PAT 25 μg/mouse i.p. 30 minutes before TNBS): allows to limit this weight loss; colon length, on average ([5]; TNBS-PAT treated mice, control mice 7 cm, TNBS-treated mice 5 cm): 6.5 cm; colon inflammation caused by TNBS rectal injection (macroscopic analysis) ([5]; i.p. 30 minutes before TNBS, dose dependant, maximal effect at 25 μg/mouse, FIG. 2): reduce to a significant extent inflammation; increase of IL-10 anti-inflammatory cytokine level [6]: more than 3 fold; progression of arthritis ([1]; PAT 0.4 μg/kg (i.p), leg, peripheral hypersensitivity and ESR): reduce very significantly the progression of arthritis; efficacy compared with indomethacin 3 mg/kg ([1]; PAT 0.4 μg/kg (i.p.), a dose 7500 fold lower than indomethacin): at least a similar efficacy; volume of the leg ([1]; PAT 0.4 μg/kg i.p.): notable reduction of inflammation and of the volume of the leg; hypersensitivity measured by the plantar test ([1]; PAT 0.4 μg/kg i.p.): hypersensitivity is very reduced; erythrocyte sedimentation rate (ESR) ([1]; PAT 0.4 μg/kg i.p., Day 21, 1 hour after the injection, compared to indomethacin group, very similar to reference rats): more reduced ESR; macroscopic clinical score ([1]; PAT 0.4 μg/kg i.p., compared to arthritic rats given saline solution): significant reduction in the macroscopic score; volume of the leg ([1]; PAT 4 μg/kg i.p.): notable reduction of inflammation and of the volume of the leg; hypersensitivity measured by the plantar test ([1]; PAT 4 μg/kg i.p.): hypersensitivity is very reduced; erythrocyte sedimentation rate (ESR) ([1]; PAT 4 μg/kg i.p., Day 21): did not have a significant effect on the reduction of ESR; macroscopic clinical score ([1]; PAT 4 μg/kg i.p., compared with 0.4 μg/kg): shows less effects
